Columns and labels:
Experiment in all cases: KINOMEscan competition binding
Settings in all cases: compound 10.0 µM
[1] = system: KIT (human), P10721 [V559D/V654A]
MKNK2 (human) = MKNK2 (human) (UniProt Q9HBH9)
AURKB (human) = AURKB (human) (UniProt Q96GD4)
CLK1 (human) = CLK1 (human) (UniProt P49759)
TAOK3 (human) = TAOK3 (human) (UniProt Q9H2K8)
DAPK1 (human) = DAPK1 (human) (UniProt P53355)
[2] = system: FLT3 (human), P36888 [D835Y]
PIP4K2B (human) = PIP4K2B (human) (UniProt P78356)
GAK (human) = GAK (human) (UniProt O14976)
TAOK1 (human) = TAOK1 (human) (UniProt Q7L7X3)
TAOK1 (human), sequence (Q7L7X3 whole entry, looked up): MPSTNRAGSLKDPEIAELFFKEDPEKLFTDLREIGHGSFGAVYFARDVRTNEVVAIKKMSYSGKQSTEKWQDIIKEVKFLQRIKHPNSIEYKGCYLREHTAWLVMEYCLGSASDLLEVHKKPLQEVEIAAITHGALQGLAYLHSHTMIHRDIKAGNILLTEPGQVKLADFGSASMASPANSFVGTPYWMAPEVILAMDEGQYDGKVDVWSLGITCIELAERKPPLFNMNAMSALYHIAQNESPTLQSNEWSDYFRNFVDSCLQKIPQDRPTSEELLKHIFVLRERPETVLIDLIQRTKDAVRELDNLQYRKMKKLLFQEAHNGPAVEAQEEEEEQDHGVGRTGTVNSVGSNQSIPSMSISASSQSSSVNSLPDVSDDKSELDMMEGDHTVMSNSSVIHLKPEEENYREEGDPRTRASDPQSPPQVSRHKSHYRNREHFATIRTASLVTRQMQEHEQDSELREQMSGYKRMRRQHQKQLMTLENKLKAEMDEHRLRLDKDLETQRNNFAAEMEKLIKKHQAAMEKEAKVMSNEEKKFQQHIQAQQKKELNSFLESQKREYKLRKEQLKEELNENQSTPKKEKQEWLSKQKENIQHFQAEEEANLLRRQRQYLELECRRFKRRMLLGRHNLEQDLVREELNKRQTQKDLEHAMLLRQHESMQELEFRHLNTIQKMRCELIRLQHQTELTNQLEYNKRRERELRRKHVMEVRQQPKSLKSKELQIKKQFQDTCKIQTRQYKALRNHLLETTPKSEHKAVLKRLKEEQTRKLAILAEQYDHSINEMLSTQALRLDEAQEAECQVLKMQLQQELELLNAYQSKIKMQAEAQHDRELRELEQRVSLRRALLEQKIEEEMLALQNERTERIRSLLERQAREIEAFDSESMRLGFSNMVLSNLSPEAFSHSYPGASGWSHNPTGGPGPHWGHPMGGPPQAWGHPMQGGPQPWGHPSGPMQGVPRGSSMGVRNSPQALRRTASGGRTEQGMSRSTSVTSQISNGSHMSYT

[3] = system: FLT3 (human), P36888 [K663Q]
CSNK1E (human) = CSNK1E (human) (UniProt P49674)
MAPK15 (human) = MAPK15 (human) (UniProt Q8TD08)
MAPK15 (human), sequence (Q8TD08 whole entry, looked up): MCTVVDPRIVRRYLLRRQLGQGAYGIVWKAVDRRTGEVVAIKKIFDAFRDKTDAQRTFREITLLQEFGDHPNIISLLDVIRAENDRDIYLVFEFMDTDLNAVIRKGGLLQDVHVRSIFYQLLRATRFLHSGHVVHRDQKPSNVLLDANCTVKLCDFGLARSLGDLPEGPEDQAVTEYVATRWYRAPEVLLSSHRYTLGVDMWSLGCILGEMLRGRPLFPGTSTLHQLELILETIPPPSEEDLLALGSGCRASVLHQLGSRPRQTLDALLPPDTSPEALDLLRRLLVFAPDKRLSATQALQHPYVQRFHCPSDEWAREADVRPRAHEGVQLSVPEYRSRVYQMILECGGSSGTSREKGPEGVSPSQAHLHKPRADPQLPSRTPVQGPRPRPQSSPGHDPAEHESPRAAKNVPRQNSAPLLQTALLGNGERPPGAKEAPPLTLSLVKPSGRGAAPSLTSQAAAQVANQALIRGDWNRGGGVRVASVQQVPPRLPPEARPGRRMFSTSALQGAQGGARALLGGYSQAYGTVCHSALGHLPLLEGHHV

TLK1 (human) = TLK1 (human) (UniProt Q9UKI8)
SRPK3 (human) = SRPK3 (human) (UniProt Q9UPE1)
CLK2 (human) = CLK2 (human) (UniProt P49760)
CLK2 (human), sequence (P49760 whole entry, looked up): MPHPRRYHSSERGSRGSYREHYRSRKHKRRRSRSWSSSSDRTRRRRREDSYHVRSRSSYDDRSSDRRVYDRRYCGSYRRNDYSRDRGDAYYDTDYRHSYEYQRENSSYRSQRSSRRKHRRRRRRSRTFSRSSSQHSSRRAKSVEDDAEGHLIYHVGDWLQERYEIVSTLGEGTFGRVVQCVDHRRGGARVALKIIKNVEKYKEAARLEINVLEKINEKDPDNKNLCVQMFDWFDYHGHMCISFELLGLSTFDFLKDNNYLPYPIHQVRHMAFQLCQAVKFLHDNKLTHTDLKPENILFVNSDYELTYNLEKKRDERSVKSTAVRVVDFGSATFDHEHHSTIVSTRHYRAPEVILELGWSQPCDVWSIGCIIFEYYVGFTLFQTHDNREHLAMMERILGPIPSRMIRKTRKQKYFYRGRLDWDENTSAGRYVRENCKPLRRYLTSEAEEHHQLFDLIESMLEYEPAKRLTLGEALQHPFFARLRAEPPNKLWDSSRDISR

[4] = system: FLT3 (human), P36888 [N841I]
TNK1 (human) = TNK1 (human) (UniProt Q13470)
[5] = system: FLT3 (human), P36888 [ITD]
MAP2K4 (human) = MAP2K4 (human) (UniProt P45985)
PIK3CG (human) = PIK3CG (human) (UniProt P48736)
PIK3CG (human), sequence (P48736 whole entry, looked up): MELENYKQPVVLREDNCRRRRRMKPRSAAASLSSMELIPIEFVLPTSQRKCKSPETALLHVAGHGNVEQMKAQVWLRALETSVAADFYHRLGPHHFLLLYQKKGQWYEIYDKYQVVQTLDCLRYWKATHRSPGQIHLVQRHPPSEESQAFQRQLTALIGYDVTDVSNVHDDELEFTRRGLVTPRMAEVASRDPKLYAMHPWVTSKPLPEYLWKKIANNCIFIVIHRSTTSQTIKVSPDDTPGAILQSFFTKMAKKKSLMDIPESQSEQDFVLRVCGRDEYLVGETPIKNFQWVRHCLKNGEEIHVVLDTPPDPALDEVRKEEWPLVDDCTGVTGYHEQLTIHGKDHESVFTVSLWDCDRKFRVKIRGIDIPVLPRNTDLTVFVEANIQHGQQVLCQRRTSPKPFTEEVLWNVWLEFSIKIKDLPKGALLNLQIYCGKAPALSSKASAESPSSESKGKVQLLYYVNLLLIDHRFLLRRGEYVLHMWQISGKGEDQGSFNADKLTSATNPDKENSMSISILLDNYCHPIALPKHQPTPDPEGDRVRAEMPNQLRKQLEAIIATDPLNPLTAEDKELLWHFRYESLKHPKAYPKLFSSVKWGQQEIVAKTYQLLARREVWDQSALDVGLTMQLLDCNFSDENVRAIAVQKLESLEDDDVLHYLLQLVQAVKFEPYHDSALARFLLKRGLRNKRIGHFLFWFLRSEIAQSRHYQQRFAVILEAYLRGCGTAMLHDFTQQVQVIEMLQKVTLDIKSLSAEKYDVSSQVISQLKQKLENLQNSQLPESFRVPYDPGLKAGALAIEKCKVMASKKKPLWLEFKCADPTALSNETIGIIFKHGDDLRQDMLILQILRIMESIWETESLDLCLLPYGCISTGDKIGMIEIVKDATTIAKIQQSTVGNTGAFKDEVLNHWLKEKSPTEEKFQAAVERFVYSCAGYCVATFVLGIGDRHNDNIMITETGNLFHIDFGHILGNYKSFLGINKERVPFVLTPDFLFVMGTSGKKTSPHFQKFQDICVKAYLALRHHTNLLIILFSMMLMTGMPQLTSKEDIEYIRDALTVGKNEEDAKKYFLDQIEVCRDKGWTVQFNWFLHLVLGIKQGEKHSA

PIM3 (human) = PIM3 (human) (UniProt Q86V86)
RPS6KA2 KD2 (human) = RPS6KA2 KD2 (human) (UniProt Q15349)
[6] = molecular target: TYK2 JH2 pseudokinase (human) (UniProt P29597)
DAPK3 (human) = DAPK3 (human) (UniProt O43293)
DAPK3 (human), sequence (O43293 whole entry, looked up): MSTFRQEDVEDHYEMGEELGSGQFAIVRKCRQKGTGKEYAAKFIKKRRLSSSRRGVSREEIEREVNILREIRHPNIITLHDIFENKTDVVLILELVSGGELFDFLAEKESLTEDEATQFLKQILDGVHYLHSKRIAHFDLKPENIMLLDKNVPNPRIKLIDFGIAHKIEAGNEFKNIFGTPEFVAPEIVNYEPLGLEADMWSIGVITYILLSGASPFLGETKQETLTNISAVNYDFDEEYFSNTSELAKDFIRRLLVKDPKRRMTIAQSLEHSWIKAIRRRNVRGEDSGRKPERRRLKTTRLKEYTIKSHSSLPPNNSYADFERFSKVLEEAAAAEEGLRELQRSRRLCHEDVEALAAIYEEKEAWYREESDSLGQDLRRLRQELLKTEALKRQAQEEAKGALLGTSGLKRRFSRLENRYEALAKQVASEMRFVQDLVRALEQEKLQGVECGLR

RIOK1 (human) = RIOK1 (human) (UniProt Q9BRS2)
RIOK1 (human), sequence (Q9BRS2 whole entry, looked up): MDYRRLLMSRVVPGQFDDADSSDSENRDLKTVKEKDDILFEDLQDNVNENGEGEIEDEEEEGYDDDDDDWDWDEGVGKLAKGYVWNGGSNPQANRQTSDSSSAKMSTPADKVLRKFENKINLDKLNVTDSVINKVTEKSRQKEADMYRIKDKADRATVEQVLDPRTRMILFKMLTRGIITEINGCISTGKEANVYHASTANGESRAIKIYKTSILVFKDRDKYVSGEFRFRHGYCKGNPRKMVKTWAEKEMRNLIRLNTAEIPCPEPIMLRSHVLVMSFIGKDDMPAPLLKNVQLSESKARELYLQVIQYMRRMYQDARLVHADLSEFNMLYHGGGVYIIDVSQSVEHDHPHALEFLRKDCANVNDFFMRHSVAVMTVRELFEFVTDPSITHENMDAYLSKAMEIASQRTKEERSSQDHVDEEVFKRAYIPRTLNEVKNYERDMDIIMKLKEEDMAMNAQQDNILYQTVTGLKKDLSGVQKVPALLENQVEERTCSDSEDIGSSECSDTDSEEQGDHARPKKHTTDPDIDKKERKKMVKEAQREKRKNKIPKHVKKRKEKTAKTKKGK

MAP3K7 (human) = MAP3K7 (human) (UniProt O43318)
AURKC (human) = AURKC (human) (UniProt Q9UQB9)
CSNK2A1 (human) = CSNK2A1 (human) (UniProt P68400)
TNIK (human) = TNIK (human) (UniProt Q9UKE5)
RIOK3 (human) = RIOK3 (human) (UniProt O14730)
RIOK3 (human), sequence (O14730 whole entry, looked up): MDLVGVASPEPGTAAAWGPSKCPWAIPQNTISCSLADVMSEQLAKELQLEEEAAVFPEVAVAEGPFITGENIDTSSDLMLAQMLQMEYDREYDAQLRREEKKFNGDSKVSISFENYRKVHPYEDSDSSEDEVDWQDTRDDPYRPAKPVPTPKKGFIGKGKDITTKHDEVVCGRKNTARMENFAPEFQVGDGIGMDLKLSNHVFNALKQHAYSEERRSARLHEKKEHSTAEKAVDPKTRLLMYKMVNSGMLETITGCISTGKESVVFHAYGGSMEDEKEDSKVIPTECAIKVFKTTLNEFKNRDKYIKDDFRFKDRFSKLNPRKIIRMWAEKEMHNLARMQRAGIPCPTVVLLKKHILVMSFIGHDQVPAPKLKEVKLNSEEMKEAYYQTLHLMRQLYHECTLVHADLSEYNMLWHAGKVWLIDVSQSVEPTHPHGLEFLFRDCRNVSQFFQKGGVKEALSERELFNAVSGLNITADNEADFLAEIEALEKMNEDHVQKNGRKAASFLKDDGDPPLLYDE

DMPK (human) = DMPK (human) (UniProt Q09013)
TGFBR2 (human) = TGFBR2 (human) (UniProt P37173)
GSK3A (human) = GSK3A (human) (UniProt P49840)
[7] = system: EGFR (human), P00533 [747-751 del / S ins]
ACVR2A (human) = ACVR2A (human) (UniProt P27037)
CHUK (human) = CHUK (human) (UniProt O15111)
STK11 (human) = STK11 (human) (UniProt Q15831)
[8] = system: KIT (human), P10721 [V559D]
[9] = system: EIF2AK4 KD2 (human), Q9P2K8 [S808G]
CSNK2A2 (human) = CSNK2A2 (human) (UniProt P19784)

SMILES: CN1C(=O)[C@H]2CCC[C@H]2N(C2CCCC2)c2nc(Nc3ccc(C(N)=O)cc3)ncc21
- kinase still bound, per cent of control [1]: 4.1%
- kinase still bound, per cent of control (MKNK2 (human)): 16%
- kinase still bound, per cent of control (AURKB (human)): 8.6%
- kinase still bound, per cent of control (CLK1 (human)): 0.9%
- kinase still bound, per cent of control (TAOK3 (human)): 10%
- kinase still bound, per cent of control (DAPK1 (human)): 3.2%
- kinase still bound, per cent of control [2]: 2.6%
- kinase still bound, per cent of control (PIP4K2B (human)): 9.6%
- kinase still bound, per cent of control (GAK (human)): 15%
- kinase still bound, per cent of control (TAOK1 (human)): 8.7%
- kinase still bound, per cent of control [3]: 14%
- kinase still bound, per cent of control (CSNK1E (human)): 21%
- kinase still bound, per cent of control (MAPK15 (human)): 18%
- kinase still bound, per cent of control (TLK1 (human)): 8.6%
- kinase still bound, per cent of control (SRPK3 (human)): 27%
- kinase still bound, per cent of control (CLK2 (human)): 1%
- kinase still bound, per cent of control [4]: 5.2%
- kinase still bound, per cent of control (TNK1 (human)): 2%
- kinase still bound, per cent of control [5]: 20%
- kinase still bound, per cent of control (MAP2K4 (human)): 31%
- kinase still bound, per cent of control (PIK3CG (human)): 11%
- kinase still bound, per cent of control (PIM3 (human)): 6.4%
- kinase still bound, per cent of control (RPS6KA2 KD2 (human)): 20%
- kinase still bound, per cent of control [6]: 15%
- kinase still bound, per cent of control (DAPK3 (human)): 33%
- kinase still bound, per cent of control (RIOK1 (human)): 26%
- kinase still bound, per cent of control (MAP3K7 (human)): 3.4%
- kinase still bound, per cent of control (AURKC (human)): 2.2%
- kinase still bound, per cent of control (CSNK2A1 (human)): 25%
- kinase still bound, per cent of control (TNIK (human)): 13%

SMILES: CS(=O)(=O)Nc1ccc(-c2cncc(/C=C3\SC(=N)NC3=O)c2)cc1
- kinase still bound, per cent of control (MKNK2 (human)): 24%
- kinase still bound, per cent of control (RIOK3 (human)): 19%
- kinase still bound, per cent of control (DMPK (human)): 22%
- kinase still bound, per cent of control (TGFBR2 (human)): 1.7%
- kinase still bound, per cent of control (AURKB (human)): 24%
- kinase still bound, per cent of control (TAOK3 (human)): 4.7%
- kinase still bound, per cent of control [2]: 3.8%
- kinase still bound, per cent of control (GSK3A (human)): 13%
- kinase still bound, per cent of control (TAOK1 (human)): 1.4%
- kinase still bound, per cent of control (CSNK1E (human)): 2.8%
- kinase still bound, per cent of control (MAPK15 (human)): 13%
- kinase still bound, per cent of control [7]: 24%
- kinase still bound, per cent of control (ACVR2A (human)): 0.9%
- kinase still bound, per cent of control (TLK1 (human)): 26%
- kinase still bound, per cent of control (SRPK3 (human)): 34%
- kinase still bound, per cent of control [4]: 28%
- kinase still bound, per cent of control (TNK1 (human)): 28%
- kinase still bound, per cent of control [5]: 25%
- kinase still bound, per cent of control (CHUK (human)): 19%
- kinase still bound, per cent of control (STK11 (human)): 17%
- kinase still bound, per cent of control (PIK3CG (human)): 32%
- kinase still bound, per cent of control (DAPK3 (human)): 25%
- kinase still bound, per cent of control (RIOK1 (human)): 7.8%
- kinase still bound, per cent of control (MAP3K7 (human)): 3.4%
- kinase still bound, per cent of control [8]: 6%
- kinase still bound, per cent of control (AURKC (human)): 16%
- kinase still bound, per cent of control (TNIK (human)): 19%

SMILES: CSC1=NC(=O)/C(=C/c2c[nH]c(=O)c(-c3ccc(NS(C)(=O)=O)cc3)c2)S1
- kinase still bound, per cent of control (RIOK3 (human)): 7.4%
- kinase still bound, per cent of control (TGFBR2 (human)): 14%
- kinase still bound, per cent of control (CLK1 (human)): 18%
- kinase still bound, per cent of control (DAPK1 (human)): 3.7%
- kinase still bound, per cent of control (PIP4K2B (human)): 18%
- kinase still bound, per cent of control [9]: 16%
- kinase still bound, per cent of control (GAK (human)): 3.4%
- kinase still bound, per cent of control (MAPK15 (human)): 5%
- kinase still bound, per cent of control (SRPK3 (human)): 14%
- kinase still bound, per cent of control (CLK2 (human)): 9.5%
- kinase still bound, per cent of control (CHUK (human)): 19%
- kinase still bound, per cent of control (MAP2K4 (human)): 10%
- kinase still bound, per cent of control (STK11 (human)): 15%
- kinase still bound, per cent of control (PIK3CG (human)): 13%
- kinase still bound, per cent of control (PIM3 (human)): 16%
- kinase still bound, per cent of control (RPS6KA2 KD2 (human)): 16%
- kinase still bound, per cent of control (DAPK3 (human)): 6.2%
- kinase still bound, per cent of control (RIOK1 (human)): 7.1%
- kinase still bound, per cent of control (MAP3K7 (human)): 14%
- kinase still bound, per cent of control (CSNK2A1 (human)): 1.6%
- kinase still bound, per cent of control (CSNK2A2 (human)): 6.2%

SMILES: CS(=O)(=O)Nc1ccc(-c2cc(/C=C3\SC(=N)NC3=O)c[nH]c2=O)cc1
- kinase still bound, per cent of control (RIOK3 (human)): 6%
- kinase still bound, per cent of control (DMPK (human)): 6.4%
- kinase still bound, per cent of control (TGFBR2 (human)): 0.85%
- kinase still bound, per cent of control (CLK1 (human)): 1.6%
- kinase still bound, per cent of control (DAPK1 (human)): 6.4%
- kinase still bound, per cent of control [2]: 20%
- kinase still bound, per cent of control (PIP4K2B (human)): 13%
- kinase still bound, per cent of control [9]: 25%
- kinase still bound, per cent of control (TAOK1 (human)): 23%
- kinase still bound, per cent of control [3]: 13%
- kinase still bound, per cent of control (MAPK15 (human)): 0.1%
- kinase still bound, per cent of control (ACVR2A (human)): 6.6%
- kinase still bound, per cent of control (SRPK3 (human)): 14%
- kinase still bound, per cent of control (CLK2 (human)): 5.2%
- kinase still bound, per cent of control [4]: 30%
- kinase still bound, per cent of control (CHUK (human)): 15%
- kinase still bound, per cent of control (STK11 (human)): 7%
- kinase still bound, per cent of control (PIM3 (human)): 6.1%
- kinase still bound, per cent of control (DAPK3 (human)): 4.4%
- kinase still bound, per cent of control (RIOK1 (human)): 11%
- kinase still bound, per cent of control (MAP3K7 (human)): 18%
- kinase still bound, per cent of control [8]: 12%
- kinase still bound, per cent of control (CSNK2A1 (human)): 4.8%
- kinase still bound, per cent of control (CSNK2A2 (human)): 3.4%

Reference: the kinase profiling compilation of Christmann-Franck et al. (2016)
